Literature values as cited in patent US7485705B2, “Water-soluble tetrazolium compounds” (Dojindo Laboratories, priority 2003, dated 2009).

## Cc1nc(-[n+]2nc(-c3ccccc3)nn2-c2ccccc2)sc1C.[Br-] [MTT, [3-(4,5-dimethylthiazol-2-yl)-2,5-diphenyltetrazolium bromide]]
  water solubility of the formazan formed upon receiving hydrogen: insoluble in water

## COc1cc(-c2ccc(-[n+]3nc(-c4ccccc4)nn3-c3ccc([N+](=O)[O-])cc3)c(OC)c2)ccc1-[n+]1nc(-c2ccccc2)nn1-c1ccc([N+](=O)[O-])cc1.[Cl-].[Cl-] [nitro-TB, 3,3′-[3,3′-dimethoxy-(1,1′-biphenyl)-4,4′-diyl]-bis-[2-(4-nitrophenyl)-5-2H tetrazolium chloride]]
  water solubility of the formazan formed upon receiving hydrogen: insoluble in water
